This passage reports GI50 and TGI results from PubChem BioAssay (NCI).

Some test systems named below: DU-145 prostate; HOP-92 NSCLC; MCF7 breast; NCI-H460 lung; NCI-H522 lung; OVCAR-8 ovarian; SK-MEL-2 melanoma; SN12C renal; SR leukemia; UACC-257 melanoma.
Common to all, as to test: growth of human tumour cells (NCI), 48 h

“And” between values parts separate entries of the source, which are not always exact repeats. Identical values can stand only once.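 Method: 48-hour compound exposure of cells in 96-well plates, five concentrations, linear interpolation of endpoints. GI50 marks 50% less growth. TGI denotes the concentration required for complete inhibition of growth.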

As for `COc1ccc(C2C(C#N)=C(N)Oc3c2sc2c(Br)cccc32)cc1` (stereo not drawn), the GI50 in the assay on DU-145 prostate was 3.27 µM; with HOP-92 NSCLC, 8.88 µM; in the assay with MCF7 breast, 0.467 µM; with NCI-H460 lung it was 2.08 µM; with NCI-H522 lung, 1.75 µM; with OVCAR-8 ovarian, 4.99 µM. Moreover, the GI50 in the assay with SK-MEL-2 melanoma is 2.38 µM; with SN12C renal, 4 µM; in the assay with SR leukemia, 0.473 µM; in the assay with UACC-257 melanoma, 13.6 µM. The TGI in the assay with DU-145 prostate worked out at 11.2 µM; with HOP-92 NSCLC, 26.4 µM; in the assay on MCF7 breast, 12 µM; in the assay with NCI-H460 lung, 21.9 µM; in the assay with NCI-H522 lung it was 6.28 µM; with OVCAR-8 ovarian, 25.3 µM. The TGI with SK-MEL-2 melanoma is 12.7 µM; in the assay on SN12C renal it was 17 µM; with SR leukemia, 3.37 µM; with UACC-257 melanoma, 32.7 µM.
In the case of `Cn1cc(C2=C(c3cn(CCCN)c4ccccc34)C(=O)NC2=O)c2ccccc21`, the GI50 was 6.71 µM with DU-145 prostate; 8.26 µM in the assay with HOP-92 NSCLC; 3.55 µM with MCF7 breast; 5.25 µM in the assay with NCI-H460 lung; 4.12 µM in the assay on NCI-H522 lung; 5.46 µM in the assay with OVCAR-8 ovarian. In addition, the GI50 in the assay with SK-MEL-2 melanoma was 3.04 µM; with SN12C renal, 4.67 µM; in the assay on SR leukemia, 2.53 µM; in the assay with UACC-257 melanoma, 4.9 µM. Moreover, the TGI in the assay on DU-145 prostate amounted to 18.7 µM; in the assay with HOP-92 NSCLC, 17.6 µM; with MCF7 breast it was 10.4 µM; in the assay with NCI-H460 lung, 11.1 µM; in the assay on NCI-H522 lung, 9.13 µM; in the assay on OVCAR-8 ovarian, 14.7 µM. For the same compound, the TGI in the assay on SK-MEL-2 melanoma was 7.07 µM; with SN12C renal, 18.6 µM; in the assay with SR leukemia, 13.8 µM; in the assay on UACC-257 melanoma, 9.05 µM.
As to `Cc1ccc(Cl)c(NS(=O)(=O)c2ccc(-c3cnc(C4CC4)o3)cc2)c1`, the GI50 in the assay on DU-145 prostate is 0.288 µM; with HOP-92 NSCLC, 2.3 µM; in the assay on MCF7 breast, 0.0407 µM; in the assay with NCI-H460 lung it was 0.102 µM; with NCI-H522 lung, 0.0566 µM; in the assay on OVCAR-8 ovarian it was 0.258 µM. Further, the GI50 in the assay on SK-MEL-2 melanoma is 0.412 µM; in the assay with SN12C renal it was 0.415 µM; in the assay on SR leukemia it was 0.0549 µM; with UACC-257 melanoma, 8.16 µM. Also, the TGI with DU-145 prostate was above 100 µM; with HOP-92 NSCLC, 20.5 µM; in the assay with MCF7 breast it was 25.9 µM; with NCI-H460 lung, 20.4 µM; in the assay on NCI-H522 lung, 20.3 µM; with OVCAR-8 ovarian it was above 58.9 µM. Besides, the TGI is 50 µM in the assay with SK-MEL-2 melanoma, above 74.9 µM in the assay on SN12C renal, above 63.3 µM in the assay on SR leukemia and 50.7 µM in the assay on UACC-257 melanoma.
Take `O=C1NC2(CCCCC2)C(=O)N1CCN(CCCl)CCCl`: the TGI in the assay on DU-145 prostate was above 25 µM; in the assay on HOP-92 NSCLC it was > 25 µM and 48.3 µM; in the assay with MCF7 breast, above 250 µM; in the assay with NCI-H460 lung, 25 µM and 249 µM; in the assay on NCI-H522 lung, > 25 µM and 163 µM; in the assay on OVCAR-8 ovarian, > 25 µM and 173 µM. Also, the TGI in the assay on SK-MEL-2 melanoma was 25 µM and > 141 µM; in the assay on SN12C renal it was above 250 µM; in the assay with SR leukemia it was 25 µM; in the assay with UACC-257 melanoma, above 250 µM. The GI50 was > 25 µM and 22.9 µM in the assay with HOP-92 NSCLC; above 25 µM in the assay on MCF7 breast; 15.7 µM in the assay with NCI-H460 lung; above 25 µM in the assay on NCI-H522 lung; above 25 µM in the assay on OVCAR-8 ovarian; 13.3 µM in the assay with SK-MEL-2 melanoma. Besides, the GI50 with SN12C renal and with UACC-257 melanoma was above 25 µM in each case.
Consider `Cc1c2ccncc2c(C)c2c1sc1ccccc12`, for which the TGI with DU-145 prostate was found to be 29.7 µM; in the assay on HOP-92 NSCLC, 28.5 µM; in the assay on MCF7 breast, 18.1 µM; in the assay with NCI-H460 lung, 14.3 µM; with NCI-H522 lung it was 23.1 µM; with OVCAR-8 ovarian, 25.1 µM. Moreover, the TGI in the assay on SK-MEL-2 melanoma was 50.4 µM; with SN12C renal it was 23.8 µM; in the assay with SR leukemia, 8.98 µM; with UACC-257 melanoma it was 47.2 µM.
Take `Nc1ncc(-c2ccc3ncnc(N4CCc5ccc(Cl)cc54)c3c2)cc1C(F)(F)F`: the GI50 was 1.43 µM in the assay with DU-145 prostate; 0.137 µM in the assay with HOP-92 NSCLC; 0.375 µM in the assay on MCF7 breast; 1.02 µM in the assay on NCI-H460 lung; 1.76 µM with NCI-H522 lung; 2.15 µM in the assay on OVCAR-8 ovarian. The GI50 is 5.12 µM in the assay on SK-MEL-2 melanoma, 0.465 µM with SN12C renal, 2.55 µM in the assay with SR leukemia and 2.86 µM with UACC-257 melanoma. The TGI in the assay with DU-145 prostate was found to be 18.2 µM; in the assay on HOP-92 NSCLC it was 6.41 µM; in the assay on MCF7 breast, 14.9 µM; in the assay with NCI-H460 lung, 13.7 µM; with NCI-H522 lung, 17.9 µM; in the assay with OVCAR-8 ovarian, 22.6 µM. Moreover, the TGI in the assay with SK-MEL-2 melanoma was 23.5 µM; with SN12C renal, 15.9 µM; with SR leukemia it was above 100 µM; in the assay with UACC-257 melanoma, 20.9 µM.
For the compound `Cc1nc2sc3c(N)ncnc3c2c(C)c1C`, the GI50 with DU-145 prostate, in the assay with HOP-92 NSCLC, in the assay on MCF7 breast, in the assay on NCI-H460 lung, with NCI-H522 lung and with OVCAR-8 ovarian was above 25 µM throughout. For the same compound, the GI50 in the assay on SK-MEL-2 melanoma, in the assay on SN12C renal, in the assay on SR leukemia and with UACC-257 melanoma was above 25 µM each time. The TGI in the assay on DU-145 prostate, in the assay on HOP-92 NSCLC, with MCF7 breast, in the assay with NCI-H460 lung, with NCI-H522 lung and in the assay on OVCAR-8 ovarian was above 25 µM throughout. For the same compound, the TGI with SK-MEL-2 melanoma, in the assay with SN12C renal, in the assay with SR leukemia and in the assay with UACC-257 melanoma was above 25 µM each time.
Take `CCOc1ccc(C(C[N+](=O)[O-])Sc2ccccc2N)cc1` (stereo not drawn): the GI50 is 4.17 µM in the assay on DU-145 prostate; 16.5 µM in the assay on HOP-92 NSCLC; 1.71 µM with MCF7 breast; 10.2 µM in the assay on NCI-H460 lung; 11.8 µM in the assay with NCI-H522 lung; 8.97 µM in the assay on OVCAR-8 ovarian. For the same compound, the GI50 in the assay on SK-MEL-2 melanoma was 16.1 µM; with SN12C renal, 3.23 µM; in the assay on SR leukemia, 2.3 µM; in the assay on UACC-257 melanoma it was 4.6 µM. The TGI amounted to 15 µM in the assay with DU-145 prostate; 30.9 µM with HOP-92 NSCLC; 6.04 µM with MCF7 breast; 27 µM with NCI-H460 lung; 24.9 µM with NCI-H522 lung; 22.6 µM in the assay with OVCAR-8 ovarian. For the same compound, the TGI with SK-MEL-2 melanoma came out at 31.2 µM; with SN12C renal, 13.4 µM; in the assay on SR leukemia, 5.17 µM; with UACC-257 melanoma, 16.7 µM.
